PubChem BioAssay (NCI)
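Each compound was tested at five concentrations against cells in 96-well plates for 48 hours. Here, GI50 denotes the concentration required for 50% inhibition of growth. TGI is the concentration that stops growth completely.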

What was measured:
Experiment in all cases: growth of human tumour cells (NCI), 48 h
[1] = tested on: SK-MEL-28 melanoma
[2] = tested on: UACC-62 melanoma
[3] = tested on: M14 melanoma
[4] = tested on: BT-549 breast
[5] = tested on: OVCAR-3 ovarian
[6] = tested on: SF-295 CNS
[7] = tested on: SNB-19 CNS
[8] = tested on: NCI-H460 lung
[9] = tested on: NCI-H226 lung
[10] = tested on: NCI-H23 lung
[11] = tested on: HS 578T breast
[12] = tested on: SN12C renal
[13] = tested on: T-47D breast
[14] = tested on: MOLT-4 leukemia
[15] = tested on: CCRF-CEM leukemia
[16] = tested on: HCC-2998 colon
[17] = tested on: SK-MEL-2 melanoma
[18] = tested on: UO-31 renal
[19] = tested on: UACC-257 melanoma
[20] = tested on: NCI/ADR-RES ovarian
[21] = tested on: HCT-116 colon
[22] = tested on: MDA-MB-435
[23] = tested on: OVCAR-8 ovarian
[24] = tested on: PC-3 prostate
[25] = tested on: SR leukemia
[26] = tested on: ACHN renal
[27] = tested on: 786-0 renal
[28] = tested on: HT29 colon
[29] = tested on: LOX IMVI melanoma
[30] = tested on: IGROV1 ovarian
[31] = tested on: RPMI-8226 leukemia
[32] = tested on: MALME-3M melanoma
[33] = tested on: MCF7 breast
[34] = tested on: U251 CNS
[35] = tested on: RXF 393 renal
[36] = tested on: SF-268 CNS
[37] = tested on: SW-620 colon
[38] = tested on: OVCAR-4 ovarian
[39] = tested on: SK-OV-3 ovarian
[40] = tested on: SNB-75 CNS
[41] = tested on: K-562 leukemia
[42] = tested on: MDA-MB-231 breast
[43] = tested on: SK-MEL-5 melanoma
[44] = tested on: KM12 colon
[45] = tested on: TK-10 renal
[46] = tested on: CAKI-1 renal
[47] = tested on: NCI-H522 lung
[48] = tested on: HOP-62 NSCLC
[49] = tested on: A498 renal
[50] = tested on: DU-145 prostate
[51] = tested on: COLO 205 colon
[52] = tested on: OVCAR-5 ovarian
[53] = tested on: HOP-92 NSCLC
[54] = tested on: SF-539 CNS
[55] = tested on: HCT-15 colon
[56] = tested on: A549 NSCLC

COc1ccc(/C=C/C(=O)c2cccc(B(O)O)c2)cc1O
GI50 [1]: 6.72 µM
TGI [1]: > 100 µM
GI50 [2]: 3.83 µM
TGI [2]: 17.3 µM
GI50 [3]: 4.23 µM
TGI [3]: 18.6 µM
GI50 [4]: 2.82 µM
TGI [4]: 14.2 µM
GI50 [5]: 3.44 µM
TGI [5]: 10.9 µM
GI50 [6]: 3.17 µM
TGI [6]: 13.2 µM
GI50 [7]: 5.1 µM
TGI [7]: 27.3 µM
GI50 [8]: 3.11 µM
TGI [8]: 11.5 µM
GI50 [9]: 4.79 µM
TGI [9]: > 100 µM
GI50 [10]: 4.67 µM
TGI [10]: 22.7 µM
GI50 [11]: 2.28 µM
TGI [11]: 8.87 µM
GI50 [12]: 3.26 µM
TGI [12]: 25.7 µM
GI50 [13]: 3.01 µM
TGI [13]: 16 µM
GI50 [14]: 4.04 µM
TGI [14]: > 100 µM
GI50 [15]: 3.13 µM
TGI [15]: 14.1 µM
GI50 [16]: 2.67 µM
TGI [16]: 7.47 µM
GI50 [17]: 15.6 µM
TGI [17]: 58.9 µM
GI50 [18]: 3.63 µM
TGI [18]: 17.4 µM
GI50 [19]: 10.6 µM
TGI [19]: 30.9 µM
GI50 [20]: 3.09 µM
TGI [20]: 28.6 µM
GI50 [21]: 2.55 µM
TGI [21]: 10.7 µM
GI50 [22]: 1.89 µM
TGI [22]: 4.57 µM
GI50 [23]: 3.82 µM
TGI [23]: > 100 µM
GI50 [24]: 6.18 µM
TGI [24]: 32.9 µM
GI50 [25]: 2.56 µM
TGI [25]: 30.3 µM
GI50 [26]: 4.59 µM
TGI [26]: 71.1 µM
GI50 [27]: 4.33 µM
TGI [27]: 40.8 µM
GI50 [28]: 9.77 µM
TGI [28]: 44.4 µM
GI50 [29]: 2.07 µM
TGI [29]: 5.37 µM
GI50 [30]: 5.39 µM
TGI [30]: 33 µM
GI50 [31]: 3.39 µM
TGI [31]: 33.3 µM
GI50 [32]: 15.3 µM
TGI [32]: 32.1 µM
GI50 [33]: 2.21 µM
TGI [33]: 12.4 µM
GI50 [34]: 3.41 µM
TGI [34]: 13.2 µM
GI50 [35]: 2.8 µM
TGI [35]: 11.4 µM
GI50 [36]: 3.46 µM
TGI [36]: 19.9 µM
GI50 [37]: 2.79 µM
TGI [37]: 11.5 µM
GI50 [38]: 7.91 µM
TGI [38]: 21 µM
GI50 [39]: 6.14 µM
TGI [39]: > 100 µM
GI50 [40]: 2.74 µM
TGI [40]: 12.2 µM
GI50 [41]: 1.33 µM
TGI [41]: > 100 µM
GI50 [42]: 3.44 µM
TGI [42]: > 100 µM
GI50 [43]: 3.76 µM
TGI [43]: 14.9 µM
GI50 [44]: 2.51 µM
TGI [44]: 6.47 µM
GI50 [45]: 4.4 µM
TGI [45]: 24.1 µM
GI50 [46]: 3.43 µM
TGI [46]: 19.3 µM
GI50 [47]: 3.33 µM
TGI [47]: 13.5 µM
GI50 [48]: 4.24 µM
TGI [48]: 18.6 µM
GI50 [49]: 2.31 µM
TGI [49]: 11.2 µM
GI50 [50]: 2.8 µM
TGI [50]: 7.88 µM
GI50 [51]: 13 µM
TGI [51]: 27.5 µM
GI50 [52]: 9.25 µM
TGI [52]: 31.6 µM
GI50 [53]: 1.42 µM
TGI [53]: 29.7 µM
GI50 [54]: 2.4 µM
TGI [54]: 8.46 µM
GI50 [55]: 2.44 µM
TGI [55]: 12.3 µM
GI50 [56]: 3.35 µM
TGI [56]: 46.9 µM
